From US20070265164A1, “Active Substances for Increasing Pathogenic Defense in Plants and Methods for the Detection Thereof” (Bayer Cropscience GmbH, priority 2004, published 2007) come the findings set out here.

Common to all, as to assay type: in vivo
Common to all, as to design: fold induction: dose or concentration left out as unconfirmed

Assay [1] relates to Contig2337_at, 12-oxophytodienoate reductase (OPR1). As to the kind of experiment: GEP, barley DNA chip, probe set 1.20. Conditions: Hordeum vulgare, topical, read-out: Expression value, 1.20 Contig2337_at; for fold induction: barley leaves 6 h after spray application, rates of Table 1 (S7 500), median induction factor vs control; for fold induction at 150 g/ha: 6 h. Here is the method: (§1) Barley plants (cv. Baronesse) were grown in compost-filled pots (diameter: 10 cm) for 10 days in a controlled-environment cabinet under defined light, humidity and temperature conditions (white light, 70% atmospheric humidity, 24° C.). At the time of spray application, the seedlings were approximately 15 cm in size. The test substances selected in this example were molecules which differ markedly in their structure and which have a well documented pronounced safener effect, and other molecules which are known from the literature to have an effect on plant stress and pathogen tolerance (Table 1). The substances were prepared as stock solutions in DMSO (dimethyl sulfoxide) at c=10 mg/ml). This was used for preparing dilutions in water supplemented with 0.2% Agrotin (comprises polyvinyl alcohol, silicones, polysaccharides and pH regulators, manufacturer: Bayer CropScience AG, Monheim, Germany), as wetter, to give the application rates shown in the table. The amount of liquid for the spray application was 800 μl per pot, corresponding to 800 l/ha. For each 800 μl of spray mixture, 16 μl of EC premix: diacetone alcohol=1:6 were additionally added as formulation auxiliaries. The substances listed in Table 1 were applied to the leaves by means of a pneumatic spray pistol. Each substance was sprayed as 2 dosages, and all experiments were carried out as replicates (2 pots per substance). Sprayings with blank formulation without active ingredient were carried out as controls. After 6 hours, the leaves were harvested, frozen in liquid nitrogen and stored at −80° C. until further use. The labeled RNA probes for the DNA chip hybridization were prepared as described in the protocols (Expression Analysis, Technical Manual) from Affymetrix (Affymetrix Inc., 3380 Central Expressway, Santa Clara, Calif., USA). First, total RNA was isolated from in each case 500 mg of the harvested leaves. In each case 10 μg of total RNA was used for the first-strand and second-strand cDNA synthesis. The cDNA was amplified with T7 polymerase and simultaneously labeled with biotin-UTP. In each case, 20 μg of this biotinylated cDNA was employed for the hybridization of the barley genome array (Gene Chip Barleyl, order No.: 511012) from Affymetrix. This DNA microarray comprises DNA sequences of 22 840 genes which are composed of a total of 400 000 EST sequences. Thereafter, the DNA microarrays were washed in the Affymetrix Fluidics Station, stained with streptavidin/phycoerythrin (Molecular Probes, P/N S-866) and scanned with the matching Agilent Laser Scanner (Agilent Gene Array Scanner). The fluorescent data obtained were analyzed with the software Microarray Suite 5 from Affymetrix. After the quality had been checked, all DNA chip analyses were stored in a database. To determine the relative expression values for genes (induction factors, repression factors), test and control chips were compared with each other, and the scoring function set by the Affymetrix software was used as the basis. The 2 biological replications of one experiment were compared in each case with 2 control chips (blank formulation), and the 4 expression values obtained for each gene were used for calculating the median. These medians are shown in the results tables as induction factors. Similarity comparisons of expression profiles from different experiments and cluster analyses were carried out using the software GeneMaths 1.5 from Applied Maths (Applied Maths, Keistraat 120, 9830 Sint-Martens-Latem, Belgium).
(§2) Gene groups from specific metabolic pathways and signal transduction chains were put together by key word search in the annotations, of the genes, which were also provided by Affymetrix, and by Blast analyses (homology comparisons) of the DNA target sequences, i.e. of the positive sequence (identified on the basis of a modified expression profile) identified on the DNA chip, using gene sequences from other organisms, preferably plant organisms, with characterized functions. […]

For assay [2], the system named is Contig5369_at, Pathogen-related protein. Kind of assay: GEP, barley DNA chip, probe set 4.2. To be noted: Hordeum vulgare, topical, read-out: Expression value, 4.2 Contig5369_at; for fold induction: barley leaves 6 h after spray application, rates of Table 1 (S7 500), median induction factor vs control; for fold induction at 150 g/ha: 6 h. Here is the method: as §1, §2

Assay [3] deals with Contig8905_at, Xytanase inhibitor protein. Kind of assay: GEP, barley DNA chip, probe set 3.1. Conditions: Hordeum vulgare, topical, read-out: Expression value, 3.1 Contig8905_at; for fold induction: barley leaves 6 h after spray application, rates of Table 1 (S7 500), median induction factor vs control; for fold induction at 150 g/ha: 6 h. How it is done: as §1, §2
Assay [4] concerns Contig2990_at, Chitinase (EC 3.2.1.14). Kind of assay: GEP, barley DNA chip, probe set 5.1. Conditions: Hordeum vulgare, topical, read-out: Expression value, 5.1 Contig2990_at; for fold induction: barley leaves 6 h after spray application, rates of Table 1 (S7 500), median induction factor vs control; for fold induction at 150 g/ha: 6 h. How it is done:
as §1, §2

The subject of assay [5] is Contig2992_s_at, Chitinase (EC 3.2.1.14). Kind of assay: GEP, barley DNA chip, probe set 5.2. Conditions: Hordeum vulgare, topical, read-out: Expression value, 5.2 Contig2992_s_at; for fold induction: barley leaves 6 h after spray application, rates of Table 1 (S7 500), median induction factor vs control; for fold induction at 150 g/ha: 6 h. How it is done: as §1, §2
The test system of assay [6] is Contig2088_s_at, Bowman-Birk type trypsin inhibitor. As to the kind of experiment: GEP, barley DNA chip, probe set 2.1. Conditions: Hordeum vulgare, topical, read-out: Expression value, 2.1 Contig2088_s_at; for fold induction: barley leaves 6 h after spray application, rates of Table 1 (S7 500), median induction factor vs control; for fold induction at 150 g/ha: 6 h. How it is done:
as §1, §2

Assay [7] deals with Contig6194_a_at, 12-oxophytodienoic acid reductase. As to the kind of experiment: GEP, barley DNA chip, probe set 1.7. Conditions: Hordeum vulgare, topical, read-out: Expression value, 1.7 Contig6194_a_at; for fold induction: barley leaves 6 h after spray application, rates of Table 1 (S7 500), median induction factor vs control; for fold induction at 150 g/ha: 6 h. How it is done: as §1, §2

The subject of assay [8] is Contig13413_at, Similar to lipases. Kind of assay: GEP, barley DNA chip, probe set 1.17. To be noted: Hordeum vulgare, topical, read-out: Expression value, 1.17 Contig13413_at; for fold induction: barley leaves 6 h after spray application, rates of Table 1 (S7 500), median induction factor vs control; for fold induction at 150 g/ha: 6 h. Here is the method: as §1, §2
Assay [9] concerns Contig2118_at, Peroxidase (EC 1.11.1.7), pathogen-induced. Kind of assay: GEP, barley DNA chip, probe set 4.1. Conditions: Hordeum vulgare, topical, read-out: Expression value, 4.1 Contig2118_at; for fold induction: barley leaves 6 h after spray application, rates of Table 1 (S7 500), median induction factor vs control; for fold induction at 150 g/ha: 6 h. How it is done:
as §1, §2

Assay [10] has as its system Contig2305_at, Methyljasmonate inducible lipoxygenase. As to the kind of experiment: GEP, barley DNA chip, probe set 1.14. Conditions: Hordeum vulgare, topical, read-out: Expression value, 1.14 Contig2305_at; for fold induction: barley leaves 6 h after spray application, rates of Table 1 (S7 500), median induction factor vs control; for fold induction at 150 g/ha: 6 h. Here is the method: as §1, §2

The subject of assay [11] is Contig9556_at, 12-oxophytodienoate reductase 3. Kind of assay: GEP, barley DNA chip, probe set 1.8. To be noted: Hordeum vulgare, topical, read-out: Expression value, 1.8 Contig9556_at; for fold induction: barley leaves 6 h after spray application, rates of Table 1 (S7 500), median induction factor vs control; for fold induction at 150 g/ha: 6 h. How it is done:
as §1, §2

Assay [12] concerns HI02E21u_s_at, Lipoxygenase (EC 1.13.11.12). Kind of assay: GEP, barley DNA chip, probe set 1.2. Conditions: Hordeum vulgare, topical, read-out: Expression value, 1.2 HI02E21u_s_at; for fold induction: barley leaves 6 h after spray application, rates of Table 1 (S7 500), median induction factor vs control; for fold induction at 150 g/ha: 6 h. Here is the method: as §1, §2
Assay [13] relates to Contig6611_at, Similar to lipases. Kind of assay: GEP, barley DNA chip, probe set 1.12. Conditions: Hordeum vulgare, topical, read-out: Expression value, 1.12 Contig6611_at; for fold induction: barley leaves 6 h after spray application, rates of Table 1 (S7 500), median induction factor vs control; for fold induction at 150 g/ha: 6 h. Here is the method:
as §1, §2

Consider `COC(=O)C1=NN(c2ccc(Cl)cc2Cl)C(C)(C(=O)OC)C1` (stereo not drawn) [S1, Mefenpyr-dimethyl], for which the fold induction in [1] was 4.89; in assay [2] it was 2.35; in assay [3], 3.1; in assay [4], 4.17; in assay [5], 6.5; in assay [6], 1. Further, the fold induction in [7] came out at 12.9; in assay [8], 1; in assay [9], 8.69; in [10] it was 1; in assay [11] it was 1; in assay [12] it was 1. In assay [13], the fold induction worked out at 1.

Turning to `CCOC(=O)C(Oc1ccc(Cl)c2cccnc12)C(=O)OCC` [S5], the fold induction was determined as 1 in assay [1]; 1 in assay [2]; 3.01 in assay [3]; 1 in assay [4]; 3.12 in [5]; 1 in assay [6]. Besides, the fold induction worked out at 2.81 in assay [7]; 1 in [8]; 2.33 in assay [9]; 1 in assay [10]; 1 in [11]; 1 in [12]. Besides, the fold induction in assay [13] came to 1.

In the case of `O=C(O)c1cc(Cl)cc(Cl)c1O` [S10], the fold induction is 1 in assay [1]; 1 in assay [2]; 1 in assay [3]; 1 in [4]; 1 in assay [5]; 2.41 in [6]. The fold induction in assay [7] was 1; in assay [8], 1; in [9], 1; in [10] it was 18.1; in assay [11], 1; in assay [12], 4.66. Moreover, the fold induction in assay [13] amounted to 2.38.

As for `NC(=O)c1ccc(C(F)(F)F)nc1O` [S6], the fold induction in assay [1] turned out to be 1; in assay [2], 1; in assay [3], 2.45; in [4], 1; in assay [5], 2.27; in [6], 1. For the same molecule, the fold induction in assay [7] amounted to 3.16; in [8], 1; in assay [9], 2.2; in [10], 1; in assay [11], 1; in assay [12], 1. Further, the fold induction in assay [13] came to 1.

Regarding `O=C(O)c1cc(Cl)nc(Cl)c1` [S9], the fold induction at 150 g/ha in assay [1] was found to be 1; in assay [2], 1; in assay [3], 2.53; in assay [4] it was 2.39; in [5], 2.14; in assay [6], 2.36. Moreover, the fold induction at 150 g/ha turned out to be 1 in [7]; 1 in [8]; 1 in assay [9]; 12.6 in [10]; 1 in [11]; 3.03 in [12]. Moreover, the fold induction at 150 g/ha in assay [13] came out at 2.

Turning to `CCOC(=O)C1=NOC(c2ccccc2)(c2ccccc2)C1` [S3, Isoxadifen-ethyl], the fold induction at 150 g/ha was determined as 1 in [1]; 4.76 in [2]; 2.99 in assay [3]; 2.77 in assay [4]; 2.19 in assay [5]; 4.26 in assay [6]. The fold induction at 150 g/ha in assay [7] came to 3.25; in assay [8] it was 1; in assay [9] it was 4.86; in [10], 2.14; in [11], 3.03; in assay [12], 40.8. Besides, in assay [13], the fold induction at 150 g/ha is 2.41.
